According to publication PMC10525795, “Pharmacokinetics of Four Tyrosine Kinase Inhibitors in Adult and Paediatric Chronic Myeloid Leukaemia Patients” (Biomedicines, 2023):
Like-named read-outs stand apart in the source and are kept apart here.

Experiments:
[1] = tested on: breast-cancer resistance protein (BRCP); design: method as in PMID 28256516; details: cited from earlier work
[2] = cited from earlier work
[3] = cited from earlier work; remark: listed apart in the source
[4] = cited from earlier work; remark: listed apart in the source
p-glycoprotein (PGP) = tested on: p-glycoprotein (PGP); design: method as in PMID 28256516; details: cited from earlier work
[5] = Cerebrospinal fluid drug concentration at end of dosing interval (Ctrough), HPLC–UV, patients with CML; assay type: in vivo, human; details: for Cerebrospinal fluid concentrations, median (IQR): all sampled patients with CML on the drug
[6] = Plasma drug concentration at end of dosing interval (Ctrough), HPLC–UV, patients with CML; details: for Plasma concentrations, median (IQR): all sampled patients with CML on the drug
BCR–-ABL kinase = details: higher than imatinib; cited from earlier work

## Cc1nc(Nc2ncc(C(=O)Nc3c(C)cccc3Cl)s2)cc(N2CCN(CCO)CC2)n1 [Dasatinib]
[1]
  Substrate of BCRP: substrate
[2]
  Average half-life: 1.3 to 5 h
  Distribution volume: > 3 L/kg
[2]; oral
  Time of concentration peak after administration: 0.5 to 3 h
[3]; adults with CML who are imatinib-resistant/intolerant
  Patients with drug-related pulmonary hypertension: 2%
[3]; newly diagnosed adults with CML
  Patients with drug-related pulmonary hypertension: 5%
[4]
  Blood–brain barrier crossing: ability to cross the blood–brain barrier
p-glycoprotein (PGP)
  Substrate of PGP: substrate
[5]
  Cerebrospinal fluid concentrations, median (IQR): 0.11 (0.06–0.32) µg/mL
[5]; listed as dasatinib
  Cerebrospinal fluid concentrations, median (IQR): 0.11 µg/mL
[5]; paediatric patients, N = 36
  Median CSF level, paediatrics: 0.11 µg/mL
[6]; adult patients, N = 3
  Median plasma concentration, adults: 0.4 µg/mL
[6]
  Plasma concentrations, median (IQR): 0.06 (0.03–0.33) µg/mL
[6]; listed as dasatinib
  Plasma concentrations, median (IQR): 0.06 µg/mL
[6]; paediatric patients, N = 36
  Median plasma concentration, paediatrics: 0.05 µg/mL

## Cc1ccc(NC(=O)c2ccc(CN3CCN(C)CC3)cc2)cc1Nc1nccc(-c2cccnc2)n1 [Imatinib]
[2]; oral
  Time of plasma peak: 2 to 4 h
[4]
  Blood–brain barrier crossing: ability to cross the blood–brain barrier

## Cc1cn(-c2cc(NC(=O)c3ccc(C)c(Nc4nccc(-c5cccnc5)n4)c3)cc(C(F)(F)F)c2)cn1 [Nilotinib]
[2]
  Average half-life: approximately 15 h
[2]; oral
  Bioavailability: approximately 30%
  Time of concentration peak after administration: 3 h
BCR–-ABL kinase
  Strength of inhibition of tyrosine kinase protein's activity versus imatinib: 20–50 times
[6]
  Plasma concentrations, median (IQR): 0.19 (0.16–0.22) µg/mL
[6]; two adult male patients
  Mean plasma concentration: 190 ng/mL

## Cc1ccc(C(=O)Nc2ccc(CN3CCN(C)CC3)c(C(F)(F)F)c2)cc1C#Cc1cnc2cccnn12 [Ponatinib]
[2]
  Half-life: approximately 24 h
[2]; oral
  Time of peak concentration after administration: ≤ 6 h
[5]
  Cerebrospinal fluid concentrations, median (IQR): 0.65 (0.18–1.65) µg/mL
[5]; listed as ponatinib
  Cerebrospinal fluid concentrations, median (IQR): 0.65 µg/mL
